Each compound was assayed against T1, human dopamine D4 receptor (Homo sapiens, UniProt P21917) (assay: Binding affinity for dopamine D4 receptor ([3H]-spiperone displacement, membrane fraction)). Settings: cloned human dopamine D4 receptor; [3H]-spiperone 0.2nM; 37°C for 30 min; Ki from IC50 by the equation of Cheng and Prusoff.
T1 construct: expressed in transfected cells
T1 sequence (P21917 1-419): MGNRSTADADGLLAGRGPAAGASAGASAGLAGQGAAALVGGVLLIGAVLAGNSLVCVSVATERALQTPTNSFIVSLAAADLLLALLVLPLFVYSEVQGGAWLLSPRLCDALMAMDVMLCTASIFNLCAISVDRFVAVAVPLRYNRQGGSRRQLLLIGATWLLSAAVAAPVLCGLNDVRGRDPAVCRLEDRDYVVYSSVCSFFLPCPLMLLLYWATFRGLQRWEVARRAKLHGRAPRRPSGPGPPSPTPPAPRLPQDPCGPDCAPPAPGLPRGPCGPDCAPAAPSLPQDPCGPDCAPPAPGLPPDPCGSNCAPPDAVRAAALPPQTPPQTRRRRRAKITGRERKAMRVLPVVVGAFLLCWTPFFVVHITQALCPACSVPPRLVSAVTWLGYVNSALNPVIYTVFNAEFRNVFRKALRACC
Experimental: Cells that express cloned human dopamine D4 receptor were harvested in an assay buffer (50mM Tris-HCl, pH7.4, containg 120 mM NaCl, 5 mM KCl, 1mM MgCl2, and 1 mM CaCl2) and homogenized in a potter type homogenizer. The membrane fraction was centrifuged at 39000 g for 20 min at 4°C. The pellet was suspended in 1 ml of the assay buffer per cells from dish having a diameter of 10 cm and was again homogenated. The aliquots (100µl) was added to the buffer containing [^3H]-spiperone of a final concentration of 0.2nM and a test compound to the final assay volume of 300µl, which was then incubated at 37°C for 30 min. The incubation was stopped by rapid filtration on a GF/B filter. Washing with 5 ml of ice-cold 50 mM Tris-HCl (pH 7.4) was then carried out. The radioactivity was measured with a packered liquid scintillation counter. The amount of nonspecific binding was determined in the presence of 1 µM spiperone, and the amount of the specific binding was then determined by subtracting the amount of the nonspecific binding from the total binding. For each compound, IC50 was determined by a regression analysis using a nonlinear least square method. The Ki value was then calculated by the equation of Cheng and Prusoff.

Row | SMILES | Ki [nM]
1 | O=c1ccc2ccccc2n1CCCN1CCN(Cc2ccc(F)c(F)c2)CC1 [Example 3, 1-[3-[4-(3,4-Difluorobenzyl)-1-piperazinyl]-propyl]-2(1H)-quinolinone] | 18
2 | O=c1ccc2ccccc2n1CCCC1CCN(Cc2ccc(F)c(F)c2)CC1 [Example 24, 1-[3-[1-(3,4-Difluorobenzyl)-4-piperidinyl]-propyl]-2 (1H)-quinolinone] | 6
3 | O=c1ccc2ccccc2n1CCCN1CCN(CC2CCCCC2)CC1 [Example 1, 1-[3-(4-Cyclohexanemethyl-1-piperazinyl)-propyl]-2(1H)-quinolinone] | 7.6
4 | O=C1CCc2ccccc2N1CCN1CCN(CC2CCCCC2)CC1 [Example 10 (A), 1-[2-(4-Cyclohexanemethyl-1-piperazinyl)-ethyl]-3,4-dihydro-2(1H)-quinolinone] | 34
5 | O=c1ccc2ccccc2n1CCCN1CCC(Oc2ccc(Cl)cc2)CC1 [Example 20, 1-[3-[4-(4-Chlorophenoxy)-1-piperidinyl]-propyl]-2(1H)-quinolinone] | 2
6 | O=C1CSc2ccccc2N1CCCC1CCN(Cc2ccc(F)cc2)CC1 [Example 32] | 7.6
7 | O=C1CSc2ccccc2N1CCCC1CCN(Cc2ccc(Cl)cc2)CC1 [Example 33] | 1
8 | O=C1CCc2ccccc2N1CCCC1CCN(Cc2ccc(F)c(F)c2)CC1 [Example 30, 1-[3-[1-(3,4-Difuorobenzyl)-4-piperidinyl]-propyl]-3,4-dihydro-2 (1H)-quinolinone] | 5.7
9 | O=C1COc2ccccc2N1CCCC1CCN(Cc2ccc(F)cc2)CC1 [Example 27, 1-[3-[1-(4-Fluorobenzyl)-4-piperidinyl]-propyl]-4H-benzo[1,4]oxazin-3-one] | 29

Now from value to compound:

Row | Ki [nM] | SMILES
10 | 1.1 | O=C1CCc2ccccc2N1CCCC1CCN(Cc2ccc(Cl)cc2)CC1 [Example 41, 1-[3-[1-(4-Chlorobenzyl)-4-piperidinyl]-propyl]-3,4-dihydro-2 (1H)-quinolinone]
11 | 5.9 | O=C1CCc2ccccc2N1CCCC1CCN(Cc2ccc(F)cc2F)CC1 [Example 39, 1-[3-[1-(2,4-Difluorobenzyl)-4-piperidinyl]propyl]-3,4-dihydro-2(1H)-quinolinone]
12 | 2.8 | Cc1ccccc1CN1CCC(CCCN2C(=O)CCc3ccccc32)CC1 [Example 44, 1-[3-[1-(2-Methylbenzyl)-4-piperidinyl]-propyl]-3,4-dihydro-2(1H)-quinolinone]
13 | 5.1 | O=C1COc2ccccc2N1CCCC1CCN(Cc2ccc(Cl)cc2)CC1 [Example 29, 1-[3-[1-(4-Chlorobenzyl)-4-piperidinyl]-propyl]-4H-benzo[1,4]oxazin-3-one]
14 | 1 | Cc1ccc(CN2CCC(CCCN3C(=O)CCc4ccccc43)CC2)cc1 [Example 55, 1-[3-[1-(4-Methylbenzyl)-4-piperidinyl]-propyl]-3,4-dihydro-2 (1H)-quinolinone]
15 | 7.5 | Cc1cccc(CN2CCC(CCCN3C(=O)CCc4ccccc43)CC2)c1 [Example 54, 1-[3-[1-(3-Methylbenzyl)-4-piperidinyl]-propyl]-3,4-dihydro-2(1H)-quinolinone]
